Source: the supplement of paper PMC10307832

Tests used:
Assay in all cases: relative viability (nuclei count vs DMSO), 5 days (fraction); higher = more cells survive
[1] = compound: C1=CC=C(C(=C1)C2=CC=C(C=C2)C3=CSC4=C3C(=C(C(=O)N4)C#N)O)O + COc1cc2c(Oc3ccc(NC(=O)C4(C(=O)Nc5ccc(F)cc5)CC4)cc3F)ccnc2cc1OCCCN1CCOCC1 [Foretinib] (partner 0.25 µM)
Summary of the method: (§1)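 Medians of duplicate plates are given as relative viability. That measure is the nuclei count in treated wells divided by the count in vehicle wells. Counts were taken on 4× images of lung cancer cell lines in 1536-well plates, 5 days after pin-tool dosing the day after seeding with one drug alone or a fixed anchor-drug dose plus five library-drug doses (not always all listed) in √10 steps.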

[2] = compound: O=C(CCCCCCNC(=O)c1cnc(N(c2ccccc2)c2ccccc2)nc1)NO [Ricolinostat] + C[C@]1(O)C[C@@H](c2nc(-c3ccc4ccc(-c5ccccc5)nc4c3)c3c(N)nccn32)C1 [Linsitinib] (partner 1 µM)
Summary of the method: as §1

[3] = compound: C1=CC=C(C(=C1)C2=CC=C(C=C2)C3=CSC4=C3C(=C(C(=O)N4)C#N)O)O + C[C@]1(O)C[C@@H](c2nc(-c3ccc4ccc(-c5ccccc5)nc4c3)c3c(N)nccn32)C1 [Linsitinib] (partner 1 µM)
Summary of the method: as §1

[4] = compound: O=C(CCCCCCNC(=O)c1cnc(N(c2ccccc2)c2ccccc2)nc1)NO [Ricolinostat] + Cc1cc(Nc2cc(N3CCN(C)CC3)nc(Sc3ccc(NC(=O)C4CC4)cc3)n2)n[nH]1 [Tozasertib] (partner 0.1 µM)
Summary of the method: as §1

Row | Cell Line | relative viability ([1]; first compound 0.08 µM) | relative viability ([1]; first compound 0.253 µM) | relative viability ([1]; first compound 0.8 µM) | relative viability ([1]; first compound 2.53 µM) | relative viability ([1]; first compound 8 µM) | relative viability ([2]; first compound 0.08 µM) | relative viability ([2]; first compound 0.253 µM) | relative viability ([2]; first compound 0.8 µM) | relative viability ([2]; first compound 2.53 µM) | relative viability ([3]; first compound 0.08 µM) | relative viability ([3]; first compound 0.253 µM) | relative viability ([3]; first compound 0.8 µM) | relative viability ([3]; first compound 2.53 µM) | relative viability ([3]; first compound 8 µM) | relative viability ([4]; first compound 0.08 µM) | relative viability ([4]; first compound 0.253 µM) | relative viability ([4]; first compound 0.8 µM) | relative viability ([4]; first compound 2.53 µM)
1 | NCI-H1437 | 1.24 | 1.32 | 1.36 | 1.37 | 1.1 | 0.805 | 1.03 | 0.98 | 0.647 | 0.668 | 1.37 | 1.03 | 1.21 | 0.81 | 0.341 | 0.4 | 0.367 | 0.315
2 | SK-MES-1 | 0.885 | 1.02 | 0.905 | 0.852 | 0.837 | 1.01 | 1.01 | 1.12 | 1.02 | 1.18 | 1.17 | 0.952 | 1.03 | 0.987 | 0.833 | 0.795 | 0.877 | 0.628
3 | NCI-H647 | 1.21 | 1.22 | 1.32 | 1.41 | 0.963 | 1.13 | 1.23 | 1.16 | 0.698 | 1.17 | 1.1 | 1.21 | 1.17 | 1.08 | 0.315 | 0.195 | 0.27 | 0.206
4 | LK-2 |  | 1.01 | 1.37 | 1.3 | 1.7 | 0.629 | 0.645 | 0.613 | 0.524 | 0.34 | 0.553 | 0.479 | 0.717 | 0.344 | 0.181 | 0.181 | 0.202 | 0.174
5 | LU99A | 0.89 | 0.86 | 0.754 | 0.83 | 0.797 | 0.495 | 0.473 | 0.455 | 0.419 | 0.556 | 0.582 | 0.614 | 0.645 | 0.468 | 0.258 | 0.276 | 0.224 | 0.239
6 | NCI-H661 | 1.3 | 1.06 | 0.898 | 1.02 | 0.99 |  | 0.53 | 0.792 | 0.779 | 0.589 | 0.607 | 0.561 | 0.487 | 0.471 | 0.354 | 0.364 | 0.288 | 0.281
7 | NCI-H520 | 0.515 | 0.711 | 0.835 | 0.848 | 0.627 |  | 0.991 | 1.02 | 0.869 | 0.712 | 1.08 | 1.26 | 1.21 | 0.829 |  | 0.374 | 0.345 | 0.345
8 | HCC-78 | 0.649 | 0.629 | 0.579 | 0.498 | 0.52 |  | 0.551 | 0.417 | 0.271 | 0.534 | 0.73 | 0.551 | 0.484 | 0.462 |  | 0.33 | 0.347 | 0.27
9 | NCI-H1666 | 1 | 0.976 | 0.95 | 1.01 | 0.916 | 0.799 | 0.806 | 0.745 | 0.468 | 0.753 | 0.817 | 0.873 | 1 | 0.653 | 0.544 | 0.591 | 0.489 | 0.358
10 | EKVX | 0.882 | 0.828 | 0.799 | 0.831 | 0.743 |  | 1.01 | 0.921 | 1.15 | 0.751 | 1.28 | 0.883 | 1.1 | 0.779 | 0.354 | 0.373 |  | 0.384
11 | HARA | 0.721 | 1.08 | 0.938 | 0.882 | 0.706 | 0.813 | 0.902 | 0.886 | 0.81 |  | 1.68 | 0.998 | 1.07 | 0.774 | 0.106 | 0.16 | 0.076 | 0.0848
12 | A-427 | 1.16 | 1.18 | 1.19 | 1.1 | 1.18 | 0.958 | 1.07 | 1.01 | 0.875 | 1.09 | 1.12 | 1.11 | 1.15 | 1.18 |  | 0.198 | 0.182 | 0.174
13 | NCI-H2087 | 1.35 | 1.27 | 1.06 | 1.11 | 0.792 | 0.896 | 0.986 | 1.01 | 0.847 | 1.14 | 1.04 | 0.946 | 1.08 | 0.966 |  | 0.253 | 0.164 | 0.168
14 | NCI-H460 | 1.18 | 1.11 | 0.972 | 1 | 0.569 | 0.468 | 0.774 | 0.731 | 0.58 |  | 0.81 | 0.682 | 1.06 | 0.657 | 0.549 | 0.46 | 0.558 | 0.186
15 | PC-14 | 0.887 | 1.24 | 0.911 | 1.03 | 0.826 | 0.928 | 0.897 | 0.907 | 0.763 | 0.93 | 1.12 | 0.978 | 1.09 | 0.745 | 0.61 | 0.553 | 0.527 | 0.418
16 | NCI-H2009 | 1.18 | 1.24 | 1.3 | 1.28 | 1.19 | 1.08 | 1.15 | 1.09 | 0.952 | 1.14 | 1.24 | 1.17 | 1.15 | 1.15 | 0.745 | 0.686 | 0.68 | 0.607
17 | COR-L 105 | 1.24 | 1.33 | 0.997 | 0.943 | 0.994 | 0.761 | 0.92 | 1.1 | 1.11 | 0.964 | 0.781 | 0.924 | 0.957 | 0.953 |  | 0.325 | 0.3 | 0.352
18 | NCI-H1993 | 0.67 | 0.52 | 0.765 | 0.76 | 0.723 | 0.696 | 0.772 | 0.665 | 0.778 | 0.617 | 0.882 | 0.713 | 0.709 | 0.802 |  | 0.644 | 0.561 | 0.536
19 | NCI-H1395 | 0.867 | 0.964 | 0.991 | 1.01 | 1 |  | 1.2 | 1.05 | 1.04 |  | 1.89 | 1.13 | 1.03 | 1.38 |  | 0.835 | 0.741 | 0.671
